Laboratory results from patent US6528655B1, “Aromatic derivatives with HIV integrase inhibitory properties” (Pharmacor, Inc., priority 2000, dated 2003).

molecular target: HIV-1 integrase (Human immunodeficiency virus type 1 group M subtype B, UniProt P04585); experiment: HIV-1 integrase inhibition assay (radiolabeled duplex substrate corresponding to the U5 end of the HIV LTR); type: biochemical; details: not given
Protocol: For the purpose of Table 1 to 4, the HIV-1 integrase inhibition assay was carried out following a known procedure (Burke, Jr. T. R. et al., J. Med. Chem. 38, 4171-4178 (1995)). A suitable radiolabeled duplex substrate corresponding to the U5 end of the HIV LTR was used.
For the purposes of Table 1 to 4 the HIV-1 integrase inhibition assay was based on a known procedure (Hazuda, D. J. et al., Nucleic Acids Res. 22 1121-1122 (1994)).

First: CC(C)(C)OC[C@H](NC(=O)c1cc(O)c(O)c(O)c1)C(=O)NCCc1ccc(O)c(O)c1 [Example 43, N-[Nα-(3,4,5-Trihydroxybenzoyl)-O-tert-butyl-L-seryl]dopamine]
Second: O=C(N[C@@H](CO)C(=O)NCCc1ccc(O)c(O)c1)c1cc(O)c(O)c(O)c1 [Example 45, N-[Nα-(3,4,5-Trihydroxybenzoyl)-L-seryl]dopamine]
The IC50 of the first is 2.9-fold lower: 152 nM for the first, 446 nM for the second. The first is the more potent here.

`COc1ccc(OC)c(C=CC(=O)N[C@@H](COC(C)(C)C)C(=O)NCCc2ccc(O)c(O)c2)c1` [Example 44, N-[Nα-(2,5-Dimethoxycinnamoyl)-O-tert-butyl-L-seryl]dopamine] and `COc1ccc(OC)c(C=CC(=O)N[C@@H](CO)C(=O)NCCc2ccc(O)c(O)c2)c1` [Example 46, N-[Nα-(2,5-Dimethoxycinnamoyl)-L-seryl]dopamine] cannot be ordered by IC50: greater than 10000 nM for the first, greater than 10000 nM for the second.

`Cc1ccc(C(NC(=O)CC[C@H](NC(=O)/C=C/c2ccc(O)c(O)c2)C(=O)NCCc2ccc(O)c(O)c2)(c2ccccc2)c2ccccc2)cc1` [Example 48, N-(Nα-Caffeoyl-Nδ-methyltrityl-L-glutaminyl)dopamine] and `Cc1ccc(C(NC(=O)CC[C@H](NC(=O)c2ccc(O)c(O)c2)C(=O)NCCc2ccc(O)c(O)c2)(c2ccccc2)c2ccccc2)cc1` [Example 49, N-[Nα-(3,4-Dihydroxybenzoyl)-Nδ-methyltrityl-L-glutaminyl]dopamine] are within 1.5-fold of each other in IC50: 1150 nM for the first, 1300 nM for the second.

First: Cc1ccc(C(NC(=O)CC[C@H](NC(=O)/C=C/c2cccc([N+](=O)[O-])c2)C(=O)NCCc2ccc(O)c(O)c2)(c2ccccc2)c2ccccc2)cc1 [Example 50, N-[Nα-(3-Nitrocinnamoyl)-Nδ-methyltrityl-L-glutaminyl]dopamine]
Second: Cc1ccc(C(NC(=O)CC[C@H](NC(=O)c2cc(O)c3cccc(O)c3n2)C(=O)NCc2ccc(O)c(O)c2)(c2ccccc2)c2ccccc2)cc1 [Example 69, N-[Nα-(4,8-Dihydroxyquinoline-2-carbonyl)-Nδ-methyltrityl-L-glutaminyl]-3,4-dihydroxybenzylamine]
The IC50 of the first is 11-fold higher: 3950 nM for the first, 346 nM for the second.

Going from `O=C(N[C@@H](Cc1cn(C(c2ccccc2)(c2ccccc2)c2ccccc2)cn1)C(=O)NCCc1ccc(O)c(O)c1)c1ccc(O)cc1` [Example 52, N-[Nα-(4-Hydroxybenzoyl)-Nτ-trityl-L-histidinyl]dopamine] to `O=C(N[C@@H](Cc1cn(C(c2ccccc2)(c2ccccc2)c2ccccc2)cn1)C(=O)NCc1ccc(O)c(O)c1)c1cc(O)c2cccc(O)c2n1` [Example 70, N-[Nα-(4,8-Dihydroxyquinoline-2-carbonyl)-Nτ-trityl-L-histidinyl]-3,4-dihydroxybenzylamine], the IC50 falls from 3300 nM to 403 nM (8.2-fold). The second is the more potent here.

Compared with `CC(C)(C)OC(=O)NCCC[C@H](NC(=O)c1cc(O)c(O)c(O)c1)C(=O)NCCc1ccc(O)c(O)c1` [Example 54, N-[Nα-(3,4,5-Trihydrozybenzoyl)-Nδ-butoxycarbonyl-L-ornithyl]dopamine], `CC(C)(C)OC(=O)C[C@H](NC(=O)c1cc(O)c2cccc(O)c2n1)C(=O)NCCc1ccc(O)c(O)c1` [Example 62, N-[Nα-(4,8-Dihydroxyquinoline-2-carbonyl)-Oγ-ted-butyl-L-aspartyl]dopamine] is higher in IC50: 374 nM for the first, greater than 5000 nM for the second. The first is the more potent here.

`O=C(NCCCC[C@H](NC(=O)c1cc2cccc(O)c2cc1O)C(=O)NO)c1cc2cccc(O)c2cc1O` [Example 56, Nα,Nε-di-(3,5-Dihydroxynaphthyl-2-carbonyl)-L-lysine hydroxylamide] and `O=C(NCCCC[C@H](NC(=O)c1cc2cccc(O)c2cc1O)C(=O)NCCc1ccc(O)c(O)c1)c1cc2cccc(O)c2cc1O` [Example 66, N-[Nα,Nε-di-(3,5-Dihydroxynaphthyl-2-carbonyl)-L-lysyl]dopamine] cannot be ordered by IC50: 5300 nM for the first, greater than 5000 nM for the second.

Going from `O=C(N[C@@H](Cc1ccc(O)cc1)C(=O)NCCc1ccc(O)c(O)c1)c1cc2cccc(O)c2cc1O` [Example 57, N-[Nα-(3,5-Dihydroxynaphthyl-2-carbonyl)-L-tyrosyl]dopamine] to `O=C(N[C@@H](Cc1ccc(O)c(O)c1)C(=O)NCCc1ccc(O)c(O)c1)c1cc2cccc(O)c2cc1O` [Example 60, N-[Nα-(3,5-Dihydroxynaphthyl-2-carbonyl)-L-3,4-dihydroxyphenylalanyl]dopamine], the IC50 rises from 1100 nM to 1800 nM (1.6-fold).

Going from `O=C(N[C@@H](Cc1ccc(O)cc1)C(=O)NCCc1ccc(O)c(O)c1)c1cc(O)c2cccc(O)c2n1` [Example 58, N-[Nα-(4,8-Dihydroxyquinoline-2-carbonyl)-L-tyrosyl]dopamine] to `O=C(N[C@@H](Cc1ccc(O)cc1)C(=O)NCc1ccc(O)c(O)c1)c1cc(O)c2cccc(O)c2n1` [Example 68, N-[Nα-(4,8-Dihydroxyquinoline-2-carbonyl)-L-tyrosyl]-3,4-dihydroxybenzylamine], the IC50 rises from 1200 nM to greater than 5000 nM.

Going from `O=C(N[C@@H](Cc1c[nH]c2ccccc12)C(=O)NCCc1ccc(O)c(O)c1)c1cc2cccc(O)c2cc1O` [Example 59, N-[Nα-(3,5-Dihydroxynaphthyl-2-carbonyl)-L-tryptophanyl]dopamine] to `NC(=O)C[C@H](NC(=O)c1cc2cccc(O)c2cc1O)C(=O)NCCc1ccc(O)c(O)c1` [Example 61, N-[Nα-(3,5-Dihydroxynaphthyl-2-carbonyl)-L-asparagyl]dopamine], the IC50 rises from 620 nM to greater than 5000 nM. The first is the more potent here.

Going from `O=C(C[C@H](NC(=O)c1cc(O)c2cccc(O)c2n1)C(=O)NCCc1ccc(O)c(O)c1)NC(c1ccccc1)(c1ccccc1)c1ccccc1` [Example 64, N-[Nα-(4,8-Dihydroxyquinoline-2-carbonyl)-Nγ-trityl-L-asparagyl]dopamine] to `COc1ccc(OC)c(NC(=O)[C@H](CCC(=O)NC(c2ccccc2)(c2ccccc2)c2ccccc2)NC(=O)c2ccc(O)c(O)c2)c1` [Example 83, N-[Nα-(3,4-Dihydroxybenzoyl)-Nδ-trityl-L-glutaminyl]-2,5-dimethoxyaniline], the IC50 falls from 7100 nM to 2250 nM (3.2-fold).

`NC(=O)C[C@H](NC(=O)c1cc(O)c2cccc(O)c2n1)C(=O)NCCc1ccc(O)c(O)c1` [Example 67, N-[Nα-(4,8-Dihydroxyquinoline-2-carbonyl)-L-asparagyl]dopamine] and `CC(C)(C)OC[C@H](NC(=O)c1cc(O)c2cccc(O)c2n1)C(=O)NCCc1ccc(O)c(O)c1` [Example 72, N-[Nα-(4,8-Dihydroxyquinoline-2-carbonyl)-O-tert-butyl-L-seryl]dopamine] cannot be ordered by IC50: greater than 5000 nM for the first, greater than 10000 nM for the second.

Compared with `O=C(N[C@@H](Cc1ccc(O)cc1)C(=O)NNC(=O)c1ccccc1O)c1cc(O)c2cccc(O)c2n1` [Example 73, N1-[Nα-(4,8-Dihydroxyquinoline-2-carbonyl)-L-tyrosyl]-N2-(2-hydroxybenzoyl)-hydrazine], `O=C(N[C@@H](Cc1c[nH]c2ccccc12)C(=O)NNC(=O)c1ccccc1O)c1cc(O)c2cccc(O)c2n1` [Example 77, N1-[Nα-(4,8-Dihydroxyquinoline-2-carbonyl)-L-tryptophanyl]-N2-(2-hydroxybenzoyl)-hydrazine] is 2.1-fold higher in IC50: 2200 nM for the first, 4700 nM for the second. The first is the more potent here.

First: O=C(/C=C/c1ccc(O)c(O)c1)N[C@@H](Cc1ccc(O)cc1)C(=O)NNC(=O)c1ccccc1O [Example 74, N1-(Nα-Caffeoyl-L-tyrosyl)-N2-(2-hydroxybenzoyl)-hydrazine]
Second: O=C(/C=C/c1ccc(O)c(O)c1)N[C@@H](Cc1ccc(O)c(O)c1)C(=O)NNC(=O)c1ccccc1O [Example 76, N1-(Nα-Caffeoyl-L-3,4-dihydroxyphenylalanyl)-N2-(2-hydroxybenzoyl)-hydrazine]
The IC50 of the first is 2.1-fold higher: 820 nM for the first, 383 nM for the second.

First: O=C(/C=C/c1ccc(O)c(O)c1)N[C@@H](Cc1c[nH]c2ccccc12)C(=O)NNC(=O)c1ccccc1O [Example 75, N1-(Nα-Caffeoyl-L-tryptophanyl)-N2-(2-hydroxybenzoyl)-hydrazine]
Second: O=C(C=Cc1ccc(O)c(O)c1)NC(Cc1cn(-c2ccc([N+](=O)[O-])cc2[N+](=O)[O-])cn1)C(=O)NNC(=O)c1ccccc1O [Example 80, N1-[Nα-Caffeoyl-Nτ-(2,4-dinitrophenyl)-L-histidinyl]-N2-(2-hydroxybenzoyl)-hydrazine]
The IC50 of the first is 4.8-fold higher: 1200 nM for the first, 251 nM for the second. The second is the more potent here.

`CC(C)(C)OC(=O)N[C@@H](Cc1cn(-c2ccc([N+](=O)[O-])cc2[N+](=O)[O-])cn1)C(=O)NNC(=O)c1ccccc1O` [Example 79, N1-[Nα-tert-Butoxycarbonyl-Nτ-(2,4-dinitrophenyl)-L-histidinyl]-N2-(2-hydroxybenzoyl)-hydrazine] and `O=C(C=Cc1ccsc1)NC(Cc1cn(-c2ccc([N+](=O)[O-])cc2[N+](=O)[O-])cn1)C(=O)NNC(=O)c1ccccc1O` [Example 81, N1-[Nα-(3-(3′-thiophenyl)acryloyl)-Nτ-(2,4-dinitrophenyl)-L-histidinyl]-N2-(2-hydroxybenzoyl)-hydrazine] cannot be ordered by IC50: greater than 4000 nM for the first, greater than 10000 nM for the second.

Compound `COc1ccc(OC)c(NC(=O)[C@H](CCC(=O)NC(c2ccccc2)(c2ccccc2)c2ccccc2)NC(=O)/C=C/c2ccc(O)c(O)c2)c1` [Example 82, N-(Nα-Caffeoyl-Nδ-trityl-L-glutaminyl)-2,5-dimethoxyaniline] has an IC50 of 2550 nM.

same assay, conditions: Table 2, compounds of formula III′; read-out: IC50

Compared with `O=C(NCCCC[C@H](NC(=O)c1cc2cccc(O)c2cc1O)C(=O)OCc1ccccc1)c1cc2cccc(O)c2cc1O` [Example 55, Nα,Nε-di-(3,5-Dihydroxynaphthyl-2-carbonyl)-L-L-lye Benzyl Ester], `Cc1ccc(C(c2ccccc2)(c2ccccc2)n2cnc(C[C@H](NC(=O)c3cc(O)c4cccc(O)c4n3)C(=O)NCCc3ccc(O)c(O)c3)c2)cc1` [Example 71, N-[Nα-(4,8-Dihydroxyquinoline-2-carbonyl)-Nτ-methyltrityl-L-histidinyl]dopamine] is lower in IC50: greater than 5000 nM for the first, 607 nM for the second.

same assay, conditions: Table 3, compounds of formula IV′; read-out: IC50

For `O=C(CC[C@H](NC(=O)c1cc(O)c2cccc(O)c2n1)C(=O)NNC(=O)c1ccccc1O)NNC(=O)c1ccccc1O` [Example 78, N1-[Nα-(4,8-Dihydroxyquinoline-2-carbonyl)-L-glutamyl]-N2/Nδ-di-(2-hydroxybenzoyl)-dihydrazine], the IC50 was greater than 9700 nM.
